US9359338B2, “Cyclopropanecarboxamido-substitute aromatic compounds as anti-tumor agents” (Crown Bioscience Inc. (Taiwan), priority 2012, dated 2016)
Read-outs that look alike come from different tables or passages of the source.

How the values were obtained:
KDR kinase (790-1356 AA) = KDR kinase (790-1356 AA) (Homo sapiens (Human), UniProt P35968); assay: Inhibitory activity at KDR kinase (Lance Ultra Ulight-TK assay); format: biochemical
Description: Inhibitory Activity of Compounds at KDR Kinase
• [Experimental method]: Use Lance@Ultra Ulight™-TK assay kit from PerKinElmer to evaluate the inhibitory activity of compounds at KDR kinase. • [Instrument]: PerKinElmer's ENVISION plate reader • [Materials]: Optiplate-384 well plate (PerKinElmer), kinase buffer (50 mM Hepes pH7.5, 0.25 mM EGTA, 2 mM DTT, 0.01% Tween 20, 10 mM Mg^2+, 0.5 mM Mn^2+), KDR kinase (790-1356 AA, Crown Bioscience), KDR kinase substrate (PerKinElmer catalogue # TRF0127-M), Lance@Eu-W1024-anti-phosphotyrosine (PT66) (PerKinElmer, catalogue #AD0068), ATP (Invitrogen), DMSO (Sigma, catalogue #34869), purified water (Millipore, type: Milli-Q). • [Study conditions]: Mix KDR (final concentration: 20 nM) and compound (final DMSO: 0.5%), pre-incubate for 20 min at 30° C.; then add ATP (final concentration: 90 μM) and the substrate (final concentration […]). React for 2 hrs at 30° C. After the reaction, add antibody and reaction for 60 min at 30° C. Read the plate (615 nm, 665 nm), calculate the ratio of the value at 665 nm vs 615 nm and analyze the data. • [Samples]: Compounds in the examples and Sorafenib (positive control) • [Data Analysis]: Use CBIS data analysis software to calculate IC50 values

pERK in MDA-MB-231 cells = assay: Inhibitory activity at pERK (In Cell Western, MDA-MB-231 cells); format: cell-based; conditions: read-out: MDA-MB-231 pERK IC50
Description: Inhibitory Activity of Compounds at pERK
When the cells reach 80% confluency, collect cells by trypsinization and centrifugation at 800 rpm for 3 minutes. Resuspend cells with appropriate volume of medium and count cell numbers. Adjust cell concentration to 70000 cells/mL, and split 100 μL cell suspension per well into 96-well plates. Transfer the plates into cell culture incubator (37° C., 5% CO2) and incubate cells overnight. Discard the medium, wash with PBS once, Prepare compound serial dilutions in culture medium with total 8 compound concentrations at 3-fold serial dilutions (the final top concentration starts from 30 μM). Dispense 75 μL DMEM medium (with 0.1% BSA) and 25 μL of each test compound dilution into corresponding wells with DMSO at 0.3% final concentration. Continue incubating cells in cell culture incubator for additional 2 hrs at 37° C., 5% CO2. Discard culture medium, and wash cells once with PBS. Add 100 μL of 4% formaldehyde solution to each well and fix for 20 min. Discard the formaldehyde, then add 100 μL ice-cold 100% methanol at 4° C. for 20 min. Discard methanol, wash with PBS three times. Add to each well 100 μL of 2% BSA solution, seal for 30 min at room temperature. Discard the BSA solution, add to each well 50 μL of the 1st antibody solution (prepared with 2% BSA, 1:250 dilution), incubate at 4° C. overnight. Discard the 1^St antibody solution, wash with PBS four times. Add to each well […] the 2nd antibody solution (prepared with 1% BSA, 1:1000 dilution), incubate at room temperature for 1 hr. Discard the 2nd antibody solution, wash with PBS four times, add to each well 100 μL PI solution (1.5 μM), incubate at room temperature for 30 min. Use Acumen (TPP) to measure the fluorescence. • [Samples]: Compounds in the examples and sorafenib (positive control) • [Data Analysis]: Use CBIS data analysis software to calculate IC50 values

PLC-PRF-5 cells = assay: Inhibition of proliferation of PLC-PRF-5 cells (ATPlite); format: cell-based; conditions: read-out: PLC-PRF-5 cell proliferation IC50
Text: Inhibitory Activity of Compounds to the Proliferation of PLC-PRF-5 Cells
• [experimental Method]: Use PerKinElmer's ATPlite™ Luminescence ATP Detection Assay System to evaluate the inhibitory activity of compounds to the proliferation of PLC-PRF-5 cells. • [Instruments]: ENVISION plate reader (PerKinElmer) and centrifuge (Thermo Scientific, Sorvall ST16R) • [material]: PLC-PRF-5 cells (ATCC), 96-well plate (Nunc, #165305), DMEM medium (Gibco, #11965-092), PBS (Invitrogen, #10010023), fetal bovine serum (Gibco, #16000044), DMSO (Sigma, #D2650), ATPlite™ Luminescence ATP Detection Assay System (PerkinElmer, #6016949), purified water (Millipore, type: Milli-Q). • [Protocol]: Grow PLC-PRF-5 cells in DMEM supplemented with 10% FBS. When the cells reach 80% confluency, collect cells by trypsinization and centrifugation at 800 rpm for 3 min. Resuspend cells with appropriate volume of medium and count cell numbers. Adjust cell concentration to 50000 cells/mL, and split 160 μL cell suspension per well into 96-well plates. Transfer the plates into cell culture incubator (37° C., 5% CO2) and incubate cells for 2 hrs. Prepare compound serial dilutions in culture medium with total 8 compound concentrations at 3-fold serial dilutions (the final top concentration starts from 30 μM). Dispense 40 μL of each test compound dilution into corresponding wells with DMSO at 0.3% final concentration. Continue incubating cells in cell culture incubator for additional 96 hrs at 37° C., 5% CO2. Discard culture medium, and wash cells once with PBS. Add 50 μL cell lysis buffer per well and shake plates for 5 min at room temperature to ensure complete lysis of cells. Then add 50 μL of substrate solution and shake plates for 1 min at room temperature. Allow the plates to incubate at room temperature for 5 min, followed by recording the luminescence signals using Envision, and subsequent data analysis. • [Samples]: Compounds in the examples and Sorafenib (positive control) • [Data analysis]: Use CBIS data analysis software to calculate IC50 values

[1] = Homo sapiens, MDA-MB-231, MDA-MB-231 cells
[2] = Homo sapiens, PLC-PRF-5, PLC-PRF-5 cells

Chain of KDR kinase (790-1356 AA) (P35968 790-1356): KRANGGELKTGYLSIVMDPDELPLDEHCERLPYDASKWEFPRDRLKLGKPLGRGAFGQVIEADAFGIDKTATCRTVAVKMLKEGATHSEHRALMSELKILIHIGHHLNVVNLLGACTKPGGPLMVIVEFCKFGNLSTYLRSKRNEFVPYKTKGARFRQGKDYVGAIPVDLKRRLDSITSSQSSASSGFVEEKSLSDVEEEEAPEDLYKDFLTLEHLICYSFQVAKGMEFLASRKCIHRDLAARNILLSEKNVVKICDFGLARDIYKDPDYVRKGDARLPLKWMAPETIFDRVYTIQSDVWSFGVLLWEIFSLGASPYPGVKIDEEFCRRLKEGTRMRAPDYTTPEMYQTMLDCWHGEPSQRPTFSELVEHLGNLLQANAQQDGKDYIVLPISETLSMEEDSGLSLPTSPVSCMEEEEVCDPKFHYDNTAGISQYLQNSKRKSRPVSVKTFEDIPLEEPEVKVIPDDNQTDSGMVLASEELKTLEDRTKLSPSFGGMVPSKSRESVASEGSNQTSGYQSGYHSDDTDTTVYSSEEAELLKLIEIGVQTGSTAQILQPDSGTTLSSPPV

| Compound | IC50 (KDR kinase (790-1356 AA)) [nM] | IC50 (pERK in MDA-MB-231 cells; [1]) [nM] | IC50 (PLC-PRF-5 cells; [2]) [nM] | IC50 (pERK in MDA-MB-231 cells; MDA-MB-231 cells) [nM] | IC50 (PLC-PRF-5 cells; PLC-PRF-5 cells) [nM] |
| --- | --- | --- | --- | --- | --- |
| O=C(Nc1ccc(Cl)c(C(F)(F)F)c1)Nc1cc(Oc2cc(NC(=O)C3CC3)ncn2)ccc1F [Exe. 002, N-[6-[3-[[4-chloro-3-(trifluoromethyl)phenyl]carbamoyl-amino]-4-fluoro-phenoxy]pyrimidin-4-yl]cyclopropanecarboxamide] | 5.4 | 15.5 | 3400 |  |  |
| Cc1cc(Oc2cc(NC(=O)C3CC3)ncn2)c(F)cc1NC(=O)Nc1ccc(Cl)c(C(F)(F)F)c1 [Exe. 003] | 16.7 | 87 | 11500 |  |  |
| O=C(Nc1cc(F)cc(Oc2cc(NC(=O)C3CC3)ncn2)c1)Nc1ccc(Cl)c(C(F)(F)F)c1 [Exe. 005] | 27 | 40.6 | 6000 |  |  |
| N#Cc1cc(NC(=O)Nc2ccc(Cl)c(C(F)(F)F)c2)ccc1Oc1cc(NC(=O)C2CC2)ncn1 [Exe. 006] | 25 | 281 | 5380 |  |  |
| Cc1nc(NC(=O)Nc2ccc(Cl)c(C(F)(F)F)c2)ccc1Oc1cc(NC(=O)C2CC2)ncn1 [Exe. 011] | 13.4 | 261 | 19500 |  |  |
| O=C(Nc1cccc(Oc2cc(NC(=O)C3CC3)ncn2)c1)Nc1ccc(Cl)c(C(F)(F)F)c1 [Exe. 012] | 9.9 | 71 | 10300 |  |  |
| O=C(Nc1ccc(F)c(Oc2cc(NC(=O)C3CC3)ncn2)c1)Nc1ccc(Cl)c(C(F)(F)F)c1 [Exe. 013] | 14.2 | 50 | 16100 |  |  |
| Cc1ccc(Oc2cc(NC(=O)C3CC3)ncn2)cc1NC(=O)Nc1ccc(Cl)c(C(F)(F)F)c1 [Exe. 014] | 7 | 48.5 | 8700 |  |  |
| O=C(Nc1ccc(Oc2cc(NC(=O)C3CC3)ncn2)nc1)Nc1ccc(Cl)c(C(F)(F)F)c1 [Exe. 015] | 4.2 | 94 | 6500 |  |  |
| Cc1cc(Oc2cc(NC(=O)C3CC3)ncn2)ncc1NC(=O)Nc1ccc(Cl)c(C(F)(F)F)c1 [Exe. 016] | 9.4 | 55 | 20100 |  |  |
| Cc1cc(Oc2ccnc(NC(=O)C3CC3)c2)ncc1NC(=O)Nc1ccc(Cl)c(C(F)(F)F)c1 [Exe. 018] | 9.4 | 4.6 | 4040 |  |  |
| N#Cc1cc(NC(=O)Nc2ccc(Cl)c(C(F)(F)F)c2)ccc1Oc1ccnc(NC(=O)C2CC2)c1 [Exe. 026] | 18.2 | 39 | 900 |  |  |
| O=C(Nc1ccc(Oc2ccnc(NC(=O)C3CC3)c2)c(F)c1)Nc1ccc(Cl)c(C(F)(F)F)c1 [Exe. 027] |  |  |  | 66.5 | 2390 |
| Cc1cc(Oc2cc(NC(=O)C3CC3)ncn2)ccc1NC(=O)Nc1cc(NC(C)C)cc(C(F)(F)F)c1 [Exe. 032, N-[6-[4-[[3-(isopropylamino)-5-(trifluoromethyl)phenyl]carbamoylamino]-3-methyl-phenoxy]pyrimidin-4-yl]cyclopropanecarboxamide] | 26 | 115 | 20000 |  |  |
| CC(F)(F)c1cncc(NC(=O)Nc2ccc(Oc3ccnc(NC(=O)C4CC4)c3)cc2F)c1 [Exe. 033] | 5.6 | 5 | 35 |  |  |
| CN1CCC(c2ccc(NC(=O)Nc3ccc(Oc4ccnc(NC(=O)C5CC5)c4)c(F)c3)cc2C(F)(F)F)CC1 [Exe. 036] | 15.6 | 290 | 2400 |  |  |
| O=C(Nc1cc(OC2CCOC2)cc(C(F)(F)F)c1)Nc1ccc(Oc2ccnc(NC(=O)C3CC3)c2)c(F)c1 (centres unmarked) [Exe. 039] | 14.2 | 54.4 | 500 |  |  |
| CN1CCC(C(=O)c2cc(NC(=O)Nc3ccc(Oc4ccnc(NC(=O)C5CC5)c4)c(F)c3)cc(C(F)(F)F)c2)CC1 [Exe. 040] | 15.2 | 134 | 640 |  |  |
| Nc1nnc(-c2cc(NC(=O)Nc3ccc(Oc4ccnc(NC(=O)C5CC5)c4)c(F)c3)cc(C(F)(F)F)c2)o1 [Exe. 042] | 11.5 | 94 | 3560 |  |  |
| COCC(=O)Nc1cc(NC(=O)Nc2ccc(Oc3ccnc(NC(=O)C4CC4)c3)c(F)c2)cc(C(F)(F)F)c1 [Exe. 043] | 18.1 | 30 | 604 |  |  |
| CC(c1cc(NC(=O)Nc2ccc(Oc3ccnc(NC(=O)C4CC4)c3)c(F)c2)cc(C(F)(F)F)c1)N1CCN(C)CC1 (centres unmarked) [Exe. 045] | 15.4 | 40 | 108 |  |  |
| O=C(Nc1cc(N2CCC(F)CC2)cc(C(F)(F)F)c1)Nc1ccc(Oc2ccnc(NC(=O)C3CC3)c2)c(F)c1 [Exe. 046] | 16.6 | 58.2 | 640 |  |  |
| O=C(Nc1cc(NC2CC2)cc(C(F)(F)F)c1)Nc1ccc(Oc2ccnc(NC(=O)C3CC3)c2)c(F)c1 [Exe. 049] | 9.9 | 51.3 | 642 |  |  |
| CCOC(=O)C(C)(C)CNc1cc(NC(=O)Nc2ccc(Oc3ccnc(NC(=O)C4CC4)c3)c(F)c2)cc(C(F)(F)F)c1 [Exe. 050] | 12.8 | 110 | 2230 |  |  |
| O=C(Nc1cc(N2CCN(CCF)CC2)cc(C(F)(F)F)c1)Nc1ccc(Oc2ccnc(NC(=O)C3CC3)c2)c(F)c1 [Exe. 053] | 13 | 65.1 | 686 |  |  |
| CC(C)N1CCN(c2cc(NC(=O)Nc3ccc(Oc4ccnc(NC(=O)C5CC5)c4)c(F)c3)cc(C(F)(F)F)c2)CC1 [Exe. 054] | 15.3 | 97.6 | 340 |  |  |
| CCN1CCN(c2cc(NC(=O)Nc3ccc(Oc4ccnc(NC(=O)C5CC5)c4)c(F)c3)cc(C(F)(F)F)c2)CC1 [Exe. 055] | 14.5 | 284 | 420 |  |  |
| CC(c1cc(NC(=O)Nc2ccc(Oc3ccnc(NC(=O)C4CC4)c3)c(F)c2)cc(C(F)(F)F)c1)N1CCNCC1 (centres unmarked) [Exe. 067, N-[4-[2-fluoro-4-[[3-(1-piperazin-1-ylethyl)-5-(trifluoromethyl)phenyl]carbamoylamino]phenoxy]-2-pyridyl]cyclopropanecarboxamide] |  | 75.9 | 235 |  |  |
| Cc1cc(Oc2cc(NC(=O)C3CC3)ncn2)ccc1NC(=O)Nc1cc(C2CCN(C)CC2)cc(C(F)(F)F)c1 [Exe. 073] |  |  | 2970 |  |  |
